Results: patent US12262710B2, “Fungicidal compounds” (SYNGENTA CROP PROTECTION AG, priority 2019, dated 2025)

Assays:
[1] = tested on: Pyricularia oryzae; assay: whole plant or invertebrate; type: in vivo; settings: foliar, 120 h, read-out: control of Pyricularia oryzae
[2] = tested on: Puccinia recondita f. sp. tritici; assay: Puccinia recondita (brown rust), curative, wheat leaf segments; type: in vivo; settings: foliar, 192 h, sprayed 1 day after inoculation, 8 dpi, compared to untreated control
Procedure: (§1) Wheat leaf segments are placed on agar in multiwell plates (24-well format). The leaf segments are inoculated with a spore suspension of the fungus and sprayed with test solutions 1 day after inoculation. After appropriate incubation the activity of a compound is assessed 8 dpi (days after inoculation) as curative fungicidal activity.

[3] = tested on: Alternaria solani; assay: Alternaria solani (early blight of tomatoes), tomato leaf disks; type: in vivo; settings: foliar, inoculated 2 days after application, compared to untreated control
Procedure: Alternaria solani (Early Blight of Tomatoes) Tomato leaf disks are placed on agar in multiwell plates (24-well format) and sprayed with the formulated test compound diluted in water. The leaf disks are inoculated with a spore suspension of the fungus 2 days after application. The inoculated leaf disks are incubated at 23° C./21° C.

[4] = tested on: Phakopsora pachyrhizi; assay: Example E: comparative activity against Phakopsora pachyrhizi (soybean rust), soybean leaf disks sprayed; type: in vivo; settings: 0.025% Tween20, approx. 12 dpi
Procedure: Method: Compounds to be tested are prepared as DMSO solutions which are diluted to the appropriate concentration with 0.025% Tween20 just before spraying. Soybean leaf disks are placed on agar in multiwell plates (24-well format) and sprayed with test solutions. After drying, the leaf disks are inoculated with a spore suspension of the fungus. After appropriate incubation the activity of a compound is assessed approx. 12 dpi (days after inoculation) as preventive fungicidal activity. The data are presented as the percentage of disease control of each compound for the biological tests and testing rates described below in Table J.

[5] = tested on: Phakopsora pachyrhizi; assay: Example D: comparative activity against Phakopsora pachyrhizi (soybean rust), soybean plants sprayed, leaf disks cut from treated plants; type: in vivo; settings: 0.1% OCHIMA, leaf disks cut one day after application, approx. 12 dpi
Procedure: Method: Soybean plants are sprayed in a spray chamber with formulated DMSO compound solutions which are diluted to the appropriate concentration with 0.1% […] (adjuvant comprising polyethoxylated sorbitol hexaoleate and tris(2-ethylhexyl) phosphate) just before spraying. Leaf disks are cut from treated plants and placed on agar into 24-well plates one day after application. After, the leaf disks are inoculated with a spore suspension of the fungus. After appropriate incubation the activity of a compound is assessed approx. 12 dpi (days after inoculation) as preventive fungicidal activity. The data are presented as the percentage of disease control of each compound for the biological tests and testing rates described below in Table 1.

[6] = tested on: Mycosphaerella arachidis; assay: Mycosphaerella arachidis syn. Cercospora arachidicola (brown leaf spot of peanut), liquid culture growth inhibition; type: cell-based; settings: nutrient broth (PDB), approximately 5-6 days, photometric at 620 nm, compared to untreated control
Procedure: (§2) Conidia of the fungus from cryogenic storage were directly mixed into nutrient broth (PDB potato dextrose broth). A DMSO solution of the test compounds was placed into a microtiter plate (96-well format) and the nutrient broth containing the fungal spores was added to it. The test plates were incubated at 24° C. and the inhibition of growth was determined photometrically after approximately 5-6 5 days at 620 nm.

[7] = tested on: Puccinia recondita; assay: Example C: comparative activity against Puccinia recondita (brown rust), curative, wheat leaf segments; type: in vivo; settings: 8 dpi
Procedure: as §1, with “Method; Wheat” for “Wheat”, “activity. The data are presented as the percentage of disease control of each compound for the biological tests and testing rates described below in table H.” for “activity.”

[8] = tested on: Glomerella lagenarium; assay: Glomerella lagenarium syn. Colletotrichum lagenarium (anthracnose of cucurbits), liquid culture growth inhibition; type: cell-based; settings: Colletotrichum orbiculare, nutrient broth (PDB), 72 hrs, photometric at 620 nm, compared to untreated control
Procedure: as §2, with “Glomerella lagenarium Syn. Colletotrichum lagenarium (Anthracnose of Cucurbits): Conidia” for “Conidia”, “72 hrs” for “approximately 5-6 5 days”, “nm. […]” for “nm.”

[9] = tested on: Plasmopara viticola; assay: Plasmopara viticola (downy mildew of grapevine), grape vine leaf disks, preventive; type: in vivo; settings: foliar, 168 h, 7 dpi, compared to untreated control
Procedure: (§3) Grape vine leaf disks are placed on agar in multiwell plates (24-well format) and sprayed with test solutions. After drying, the leaf disks are inoculated with a spore suspension of the fungus. After appropriate incubation the activity of a compound is assessed 7 dpi (days after inoculation) as preventive fungicidal activity.

[10] = tested on: Puccinia recondita f. sp. tritici; assay: Puccinia recondita (brown rust), preventative, wheat leaf segments; type: in vivo; settings: foliar, 192 h, 8 dpi, compared to untreated control
Procedure: as §3, with “Wheat” for “Grape vine”, “segments” for “disks”, “8” for “7”, “preventative” for “preventive”

[11] = tested on: Phakopsora pachyrhizi; assay: Phakopsora pachyrhizi (soybean rust), soybean leaf disks, preventive; type: in vivo; settings: foliar, 288 h, approx. 12 dpi, compared to untreated control
Procedure: as §3, with “Soybean” for “Grape vine”, “approx. 12” for “7”

[12] = tested on: Phytophthora infestans; assay: whole plant or invertebrate; type: in vivo; settings: in Solanum lycopersicum, foliar, 96 h, read-out: control of Phytophthora infestans
[13] = tested on: Monographella nivalis; assay: Monographella nivalis syn. Microdochium nivale (snow mould, foot rot of cereals), liquid culture growth inhibition; type: cell-based; settings: nutrient broth (PDB), 72 hrs, photometric at 620 nm, compared to untreated control
Procedure: as §2, with “72 hrs” for “approximately 5-6 5 days”, “nm. […] Cercospora arachidicola (Brown Leaf Spot of Peanut): […]” for “nm.”

[14] = tested on: Erysiphe graminis f. sp. tritici; assay: Erysiphe graminis f. sp. tritici (wheat powdery mildew), wheat leaf segments, preventive; type: in vivo; settings: Blumeria graminis, foliar, 168 h, 7 dpi, compared to untreated control
Procedure: Wheat leaf segments are placed on agar in multiwell plates (24-well format) and sprayed with test solutions. After drying, the leaf disks are inoculated with spores of the fungus. After appropriate incubation the activity of a compound is assessed 7 dpi (days post inoculation) as preventive fungicidal activity.

SMILES | pest or weed control at 200 ppm [1] | pest or weed control at 200 ppm [2] | pest or weed control at 200 ppm [3] | control (%) Phakopsora pachyrhizi (Soybean rust) ([4]; 0.6 ppm) | control (%) Phakopsora pachyrhizi (Soybean rust) ([4]; 2 ppm) | control (%) Phakopsora pachyrhizi (Soybean rust) ([4]; 6 ppm) | control (%) Phakopsora pachyrhizi (Soybean rust) ([4]; 20 ppm) | control (%) Phakopsora pachyrhizi (Soybean rust) ([4]; 60 ppm) | control (%) Phakopsora pachyrhizi (Soybean rust) ([4]; 200 ppm) | control (%) Phakopsora pachyrhizi (Soybean rust) ([5]; 6 ppm) | control (%) Phakopsora pachyrhizi (Soybean rust) ([5]; 20 ppm) | control (%) Phakopsora pachyrhizi (Soybean rust) ([5]; 60 ppm) | control (%) Phakopsora pachyrhizi (Soybean rust) ([5]; 200 ppm) | inhibition of growth at 20 ppm [6] | inhibition of growth at 20 ppm [8] | pest or weed control at 200 ppm [9] | pest or weed control at 200 ppm [10] | pest or weed control at 200 ppm [12] | inhibition of growth at 20 ppm [13] | pest or weed control at 200 ppm [14] | also measured
CO/C=C(\Oc1cc(C2CCCC2)ccc1C)C(=O)OC [E.13, methyl (Z)-2-(5-cyclopentyl-2-methyl-phenoxy)-3-methoxy-prop-2-enoate] | ≥ 80% | ≥ 80% | ≥ 80% | 10% | 10% | 60% | 100% | 100% | 100% | 0% | 4% | 46% | 98% | ≥ 80% | ≥ 80% | ≥ 80% | ≥ 80% | ≥ 80% | ≥ 80% | ≥ 80% | control (%) Puccinia recondita (Brown rust), curative ([7]; 20 ppm): 0%; control (%) Puccinia recondita (Brown rust), curative ([7]; 60 ppm): 0%; control (%) Puccinia recondita (Brown rust), curative ([7]; 200 ppm): 100%; pest or weed control at 60 ppm [11]: ≥ 70%
CO/C=C(\Oc1cc(C2CCCCC2)c(F)cc1C)C(=O)OC [E.16, methyl (Z)-2-(5-cyclohexy1-4-fluoro-2-methyl-phenoxy)-3-methoxy-prop-2-enoate] | ≥ 80% | ≥ 80% | ≥ 80% |  |  |  |  |  |  |  |  |  |  | ≥ 80% | ≥ 80% | ≥ 80% | ≥ 80% | ≥ 80% | ≥ 80% | ≥ 80% | 
CO/C=C(\Oc1cc(C2CCCCC2)ccc1C)C(=O)OC [E.15, methyl (Z)-2-(5-cyclohexyl-2-methyl-phenoxy)-3-methoxy-prop-2-enoate] | ≥ 80% | ≥ 80% | ≥ 80% | 10% | 70% | 95% | 100% | 100% | 100% | 0% | 51% | 97% | 99% | ≥ 80% | ≥ 80% | ≥ 80% | ≥ 80% | ≥ 80% | ≥ 80% | ≥ 80% | control (%) Puccinia recondita (Brown rust), curative ([7]; 20 ppm): 90%; control (%) Puccinia recondita (Brown rust), curative ([7]; 60 ppm): 100%; control (%) Puccinia recondita (Brown rust), curative ([7]; 200 ppm): 100%; pest or weed control at 60 ppm [11]: ≥ 70%
